According to patent US6953789B2, “Thiol compounds, their production and use” (Takeda Chemical Industries, Ltd., priority 1998, dated 2005):
One block for each molecule: values may come before it.

Target: T1, recombinant human MMP-13 (Homo sapiens, UniProt P45452)
T1 construct: made in house; host or cells: baculovirus (pBlueBac4 / Bac-N-Blue; virus made in Sf9), expressed in High-Five insect cells; culture supernatant used
Experiment: Assay of MMP-13 inhibiting activity (fluorogenic peptide substrate)
Format: biochemical
Conditions: 37° C., 2 hours
From the text: Based on the sequence described in the literature by Freije, J. M. et al (Journal of Biological Chemistry, 269: 16766-16773, 1994) and using a PCR method known per se, a human MMP-13 cDNA was obtained.
A pBlueBac4 (Invitrogen) and a Baculovirus vector Bac-N-Blue (Invitrogen) to each of which the human MMP-13 cDNA obtained above was integrated were co-transfected to an Sf9 cell to obtain a MMP-13-expressing recombinant virus.
The recombinant virus thus obtained was infected to a High-Five cell (Invitrogen), and the culture supernatant after three days was employed as an enzyme solution. Experiment 2 Assay of MMP-13 inhibiting activity
75 μl of a sample containing the recombinant human MMP-13, 200 mM sodium chloride, 20 mM calcium chloride, 0.1% Brij 35, 1 mM 2-mercaptoethanol, 200 mM tris-HCl buffer solution (pH7.5) and a test substance at various concentrations was treated with 25 μl of 40 μM MOCAc-Pro-Leu-Gly-Leu-A2pr(DNP)-Ala-Arg-NH2 (PEPTIDE KENKYUSHO) to initiate a reaction and kept at 37° C. for 2 hours, and then 100 μl of 500 mM sodium acetate-HCl buffer solution (pH3.0) was added to terminate the reaction.
The level of liberated MOCAc-Pro-Leu-Gly was determined using a fluorophotometer (MTP-32/F2: CORONA DENKI) at the excitation wavelength of 330 nm and the fluorescent wavelength of 405 nm. The fluorescent level of the reaction in the absence of a test substance was regarded as 100%, and the concentration of each test substance required for achieving 50% inhibition was indicated as IC50.

Molecule: 3-Mercapto-1-(4-phenoxybenzylpyrrolidine-2,5-dione [Example 1]
IC50 (Table 1): 5 nM

Molecule: 4-Acetylthio-1-[4-(2′-fluorophenoxy)benzyl]pyrrolidin-2-one [Example 112]
IC50 (Table 9): 20 nM

Molecule: CCSC1CC(=O)N(Cc2ccc(Oc3ccccc3)cc2)C1=O (stereo not drawn) [Example 2, 3-Ethylthio-1-(4-phenoxybenzyl)pyrrolidine-2,5-dione]
IC50 (Table 1): > 10000 nM

Molecule: CCOC(=O)CCSC1CC(=O)N(Cc2ccc(Oc3ccccc3)cc2)C1=O (stereo not drawn) [Example 3, 3-[2-(Ethoxycarbonyl)ethylthio]-1-(4-phenoxybenzyl)pyrrolidine-2,5-dione]
IC50 (Table 1): > 10000 nM

Molecule: O=C1CC(SCc2ccccc2)C(=O)N1Cc1ccc(Oc2ccccc2)cc1 (stereo not drawn) [Example 4, 3-Benzylthio-1-(4-phenoxybenzyl)pyrrolidine-2,5-dione]
IC50 (Table 1): > 10000 nM

Molecule: CC(=O)SC1CC(=O)N(Cc2ccc(Oc3ccccc3)cc2)C1=O (stereo not drawn) [Example 5, 3-Acetylthio-1-(4-phenoxybenzyl)pyrrolidine-2,5-dione]
IC50 (Table 1): 30 nM

Molecule: O=C(SC1CC(=O)N(Cc2ccc(Oc3ccccc3)cc2)C1=O)c1ccccc1 (stereo not drawn) [Example 6, 3-Benzoylthio-1-(4-phenoxybenzyl)pyrrolidine-2,5-dione]
IC50 (Table 1): 2 nM

Molecule: CC(=O)SC1C(=O)N(Cc2ccc(Oc3ccccc3)cc2)C(=O)C1C (stereo not drawn) [Example 7, 3-Acetylthio-4-methyl-1-(4-phenoxybenzyl)pyrrolidine-2,5-dione]
IC50 (Table 2): 50 nM

Molecule: CC1C(=O)N(Cc2ccc(Oc3ccccc3)cc2)C(=O)C1S (stereo not drawn) [Example 8, 3-Mercapto-4-methyl-1-(4-phenoxybenzyl)pyrrolidine-2,5-dione]
IC50 (Table 2): 20 nM

Molecule: COC(=O)CCSC1C(=O)N(Cc2ccc(Oc3ccccc3)cc2)C(=O)C1O (stereo not drawn) [Example 9, 3-Hydroxy-4-[2-(methoxycarbonyl)ethylthio]-1-(4-phenoxybenzyl)pyrrolidine-2,5-dione]
IC50 (Table 2): 1000 nM

Molecule: CC(=O)SCC1CC(=O)N(Cc2ccc(Oc3ccccc3)cc2)C1=O (stereo not drawn) [Example 10, 3-Acethylmethyl-1-(4-phenoxybenzyl)pyrrolidine-2,5-dione]
IC50 (Table 1): 400 nM

Molecule: O=C1CC(SSCC2CCCO2)C(=O)N1Cc1ccc(Oc2ccccc2)cc1 (stereo not drawn) [Example 11, 3-[(Tetrahydro-2-furanyl)methyldithio]-1-(4-phenoxybenzyl)pyrrolidine-2,5-dione]
IC50 (Table 1): 100 nM

Molecule: O=C1CC(SSC2CC(=O)N(Cc3ccc(Oc4ccccc4)cc3)C2=O)C(=O)N1Cc1ccc(Oc2ccccc2)cc1 (stereo not drawn) [Example 12]
IC50 (Table 7): 9 nM

Molecule: O=C1CC(CSSCC2CC(=O)N(Cc3ccc(Oc4ccccc4)cc3)C2=O)C(=O)N1Cc1ccc(Oc2ccccc2)cc1 (stereo not drawn) [Example 13, 3,3′-[Dithiobis(methylene)]bis[1-(4-phenoxybenzyl)pyrrolidine-2,5-dione]]
IC50 (Table 7): > 10000 nM

Molecule: O=C1CC(SC2CC(=O)N(Cc3ccc(Oc4ccccc4)cc3)C2=O)C(=O)N1Cc1ccc(Oc2ccccc2)cc1 (stereo not drawn) [Example 14]
IC50 (Table 7): 100 nM

Molecule: CC(=O)SC1CC(=O)N(Cc2ccc(Oc3ccccc3)cc2)C1 (stereo not drawn) [Example 15, 4-Acetylthio-1-(4-phenoxybenzyl)pyrrolidin-2-one]
IC50 (Table 3): 10 nM

Other lines, results leading:

IC50 (Table 5): 5 nM
Molecule: CC(=O)S[C@@H]1CC(=O)N(Cc2ccc(Oc3ccccc3)cc2)[C@H]1COCc1ccccc1 (relative stereo) [Example 38, Trans-4-acetylthio-5-benzyloxymethyl-1-(4-phenoxybenzyl)pyrrolidin-2-one]

IC50 (Table 5): 9 nM
Molecule: CC(=O)S[C@@H]1CC(=O)N(Cc2ccc(Oc3ccccc3)cc2)[C@H]1CC(C)C (relative stereo) [Example 179, trans-4-Acetylthio-5-isobutyl-1-(4-phenoxybenzyl)pyrrolidin-2-one]

IC50 (Table 5): 20 nM
Molecule: CC(C)C[C@H]1[C@H](S)CC(=O)N1Cc1ccc(Oc2ccccc2)cc1 (relative stereo) [Example 180, trans-5-Isobutyl-4-mercapto-1-(4-phenoxybenzyl)pyrrolidin-2-one]

IC50 (Table 5): 8 nM
Molecule: CC(=O)S[C@@H]1CC(=O)N(Cc2ccc(Oc3ccccc3)cc2)[C@H]1Cc1ccccc1 (relative stereo) [Example 181, trans-4-Acetylthio-5-benzyl-1-(4-phenoxybenzyl)pyrrolidin-2-one]

IC50 (Table 5): 20 nM
Molecule: O=C1C[C@@H](S)[C@H](Cc2ccccc2)N1Cc1ccc(Oc2ccccc2)cc1 (relative stereo) [Example 182, trans-5-Benzyl-4-mercapto-1-(4-phenoxybenzyl)pyrrolidin-2-one]

IC50 (Table 5): 20 nM
Molecule: CCCNC(=O)OC[C@H]1[C@H](SC(C)=O)CC(=O)N1Cc1ccc(Oc2ccccc2)cc1 (relative stereo) [Example 183, trans-4-Acetylthio-5-propylaminocarbonyloxymethyl-1-(4-phenoxybenzyl)pyrrolidin-2-one]

IC50 (Table 5): 2.3 nM
Molecule: CCCNC(=O)OC[C@H]1[C@H](S)CC(=O)N1Cc1ccc(Oc2ccccc2)cc1 (relative stereo) [Example 184, trans-4-Mercapto-5-propylaminocarbonyloxymethyl-1-(4-phenoxybenzyl)pyrrolidin-2-one]

IC50 (Table 5): 6 nM
Molecule: CC(=O)S[C@@H]1CC(=O)N(Cc2ccc(Oc3ccccc3)cc2)[C@H]1COC1CCCCO1 (relative stereo) [Example 185, trans-4-Acetylthio-5-(tetrahydro-2H-pyran-2-yl)oxymethyl-1-(4-phenoxybenzyl)pyrrolidin-2-one]

IC50 (Table 5): 50 nM
Molecule: CCOC(=O)CNC(=O)[C@H]1[C@H](SC(C)=O)CC(=O)N1Cc1ccc(Oc2ccccc2)cc1 (relative stereo) [Example 186, trans-4-Acetylthio-5-ethoxycarbonylmethylaminocarbonyl-1-(4-phenoxybenzyl)pyrrolidin-2-one]

IC50 (Table 5): 89 nM
Molecule: CC(=O)S[C@@H]1CC(=O)N(Cc2ccc(Oc3ccccc3)cc2)[C@H]1C(=O)NCCO (relative stereo) [Example 189, trans-4-Acetylthio-5-(2-hydroxyethyl)aminocarbonyl-1-(4-phenoxybenzyl)pyrrolidin-2-one]

IC50 (Table 5): 25 nM
Molecule: O=C(NCCO)[C@H]1[C@H](S)CC(=O)N1Cc1ccc(Oc2ccccc2)cc1 (relative stereo) [Example 190, trans-5-(2-Hydroxyethyl)aminocarbonyl-4-mercapto-1-(4-phenoxybenzyl)pyrrolidin-2-one]

IC50 (Table 5): 120 nM
Molecule: CC(=O)S[C@@H]1CC(=O)N(Cc2ccc(Oc3ccccc3)cc2)[C@H]1C(=O)NCc1ccncc1 (relative stereo) [Example 191, trans-4-Acetylthio-5-(4-pyridylmethyl)aminocarbonyl-1-(4-phenoxybenzyl)pyrrolidin-2-one]

IC50 (Table 5): 19 nM
Molecule: O=C(NCc1ccncc1)[C@H]1[C@H](S)CC(=O)N1Cc1ccc(Oc2ccccc2)cc1 (relative stereo) [Example 192, trans-4-Mercapto-5-(4-pyridylmethyl)aminocarbonyl-1-(4-phenoxybenzyl)pyrrolidin-2-one]

IC50 (Table 3): 2 nM
Molecule: O=C(SC1CC(=O)N(Cc2ccc(Oc3ccccc3)cc2)C1)c1ccccc1 (stereo not drawn) [Example 16, 4-Benzoylthio-1-(4-phenoxybenzyl)pyrrolidin-2-one]

IC50 (Table 3): 5 nM
Molecule: O=C1CC(S)CN1Cc1ccc(Oc2ccccc2)cc1 (stereo not drawn) [Example 17, 4-Mercapto-1-(4-phenoxybenzyl)pyrrolidin-2-one]

IC50 (Table 3): 30 nM
Molecule: CC(C)(C)C(=O)OCSC1CC(=O)N(Cc2ccc(Oc3ccccc3)cc2)C1 (stereo not drawn) [Example 18, 4-Pivaloyloxymethylthio-1-(4-phenoxybenzyl)pyrrolidin-2-one]

IC50 (Table 7): 200 nM
Molecule: O=C1CC(SSC2CC(=O)N(Cc3ccc(Oc4ccccc4)cc3)C2)CN1Cc1ccc(Oc2ccccc2)cc1 (stereo not drawn) [Example 19, 4,4′-Dithiobis[1-(4-phenoxybenzyl)pyrrolidin-2-one]]

IC50 (Table 5): 10 nM
Molecule: CC(=O)SC1CC(=O)N(Cc2ccc(Oc3ccccc3)cc2)C1CO (stereo not drawn) [Example 20, Trans-4-acetylthio-5-hydroxymethyl-1-(4-phenoxybenzyl)pyrrolidin-2-one]

IC50 (Table 3): 4000 nM
Molecule: CC(=O)S[C@H]1CC(=O)N(Cc2ccc(Oc3ccccc3)cc2)C1 [Example 21, (S)-4-Acetylthio-1-(4-phenoxybenzyl)pyrrolidin-2-one]

IC50 (Table 3): 300 nM
Molecule: O=C1C[C@H](S)CN1Cc1ccc(Oc2ccccc2)cc1 [Example 22, (S)-4-Mercapto-1-(4-phenoxybenzyl)pyrrolidin-2-one]

IC50 (Table 7): > 10000 nM
Molecule: O=C1C[C@H](SS[C@H]2CC(=O)N(Cc3ccc(Oc4ccccc4)cc3)C2)CN1Cc1ccc(Oc2ccccc2)cc1 [Example 23, (4S,4′S)-4,4′-Dithiobis[1-(4-phenoxybenzyl)pyrrolidin-2-one]]

IC50 (Table 7): 70 nM
Molecule: O=C1C[C@@H](SS[C@@H]2CC(=O)N(Cc3ccc(Oc4ccccc4)cc3)C2)CN1Cc1ccc(Oc2ccccc2)cc1 [Example 26, (4R,4′R)-4,4′-Dithiobis[1-(4-phenoxybenzyl)pyrrolidin-2-one]]

IC50 (Table 8): > 10000 nM
Molecule: CC(=O)SC1CCN(Cc2ccc(Oc3ccccc3)cc2)C1=O (stereo not drawn) [Example 27, 3-Acetylthio-1-(4-phenoxybenzyl)pyrrolidin-2-one]
